# Measured values reported in patent US8178091B2, “Compositions and methods for the treatment of respiratory disorders” (University of Washington, priority 2007, dated 2012).
# Entries after “also recorded” stand apart in the source; their conditions may differ.
# Columns and labels:
# [1] = test system: lung cells (TUNEL positive); test: TUNEL assay on lung sections after bleomycin; type: in vivo, mice
# Protocol: For TUNEL assay, tissue sections were deparaffinized using standard protocols and permeabilised with proteinase K (10 μg/ml in 10 mM Tris-HCl) for 30 mins at 37° C. Non-specific binding sites were blocked with 1 mg/ml BSA in 50 mM Tris-HCl for 10 mins at 37° C. TUNEL positive cells were detected with Fluorescein In Situ Cell Death Detection Kit (Roche). Nuclei were counterstained with DAPI. To quantitate apoptosis, at least 2 mice per timepoint were examined and a blinded observer counted number of TUNEL positive cells and DAPI positive cells in 4 independent fields/mouse. At least 500 cells were analyzed per condition.
# [2] = test system: primary mouse lung fibroblasts; test: migration assay (FluoroBlok transwell); type: cell-based, C57BL6 mice; conditions: IGF-1 100 ng/ml; A12 40 μg/ml preincubation
# Protocol: Mouse lung fibroblasts were plated FluoroBlok transwell filters overnight, then IGF-1 (100 ng/ml), serum free media (negative control), 10% serum (positive control) was added to lower chamber. Some cells were preincubated with the blocking antibody to IGF-1R (A12, 40 μg/ml) before the addition of IGF-1. Cells were allowed to migrate through membrane for 4 hours @ 37° C. Migrated cells were counted with Fluorescent microscope. Each experiments was done in triplicate and repeated at least three times. Average cell count ±SD are presented.
# For migration assays, primary mouse lung fibroblasts (50,000 cells/well) were plated in serum-free medium overnight on Fluoroblok transwell filters (8 μm pores, HTS FluoroBlok™ 24-Multiwell Insert System, BD Bioscience, Bedford, Mass.) pre-coated with fibronectin (50 μg/ml). Fluoroblok microporous membranes are specifically designed to detect by fluorescence only cells below the surface membrane. IGF-1 (100 ng/ml), 10% FBS (positive control) or serum-free media (negative control) was added to lower chamber. In some experiments, cells were preincubated with the blocking antibody to IGF-1R (A12, 40 μg/ml), for 1 hour. After 4 hours of migration, filters were fixed with formaldehyde and stained with DAPI (4′6-Diamidine-2′-phenylindole dihydrochloride, Roche, Indianapolis, Ind.). Migrated cells were counted in three predesignated fields for each filter. All experiments were done in triplicate and repeated at least three times.
# [3] = test system: bleomycin-treated mice; test: bleomycin-induced lung injury and fibrosis model; type: in vivo
# Protocol: ICR male mice are anesthetized under pentobarbital (60 mg/kg, i.v.) anesthesia, the cervical region is shaved and the skin is incised for about 4 mm from under the larynx region along the median line. Next, the muscle layer covering upper trachea is peeled off to expose the trachea. Using a micro-syringe, physiological saline or bleomycin hydrochloride (0.03 mg/animal, manufactured by Nippon Kayaku) is administered tracheally (50 μl/animal) from the tracheal smooth muscle region between cricoid cartilage. After the administration, the incised region is closed and antibiotics are administered into the thigh intramuscularly in order to prevent infection. IGF-1R inhibitor, e.g., antibody to IGF-1 receptor (A12). […] Controls included bleomycin-treated animals receiving saline injection in place of A12 antibody. At various time points after the induction, each animal is sacrificed by exsanguination under pentobarbital anesthesia, and lung tissue is excised to monitor for differences in lung injury in the test versus control groups. In addition, bronchoalveolar lavage is performed, with analysis of the resulting fluid for differences in total protein, cytokines, inflammatory cells and fibroblasts or in the responsiveness of such cells to, e.g., apoptotic or other stimuli. Lung hydroxyproline content is measured as a measure of fibrosis. Changes in lung tissue histology are also monitored. Further details on the processing of lung tissue for analysis include the following. At time of sacrifice, the right main stem bronchus was tied off and the left lung was isolated and lavaged with 1 ml of PBS containing 0.6 mM EDTA warmed to 37° C. Bronchoalveolar lavage fluid (BALF) total cell count was determined by trypan blue exclusion and cell differential was determined on Diff quick (Dade Behring Ag, Düdingen, Switzerland) stained cytospins. Following brief centrifugation, cell-free supernatants were used for measurement of total protein by Bio-Rad protein assay (Bio-Rad laboratories, Hercules, Calif.). […] Hydroxyproline concentration was extrapolated from a standard curve. The right lung was inflated and fixed with 4% formaldehyde at 25 cmH2O pressure for histologic evaluation.
# For these experiments, the bleomycin-induced lung injury was initiated in the manner described herein above, and the A12 anti-IGF-1R antibody was used for receptor blockade. Mice treated with bleomycin were treated with a monoclonal antibody against the IGF-1 receptor (A12) or vehicle.
# For statistical analyses of the data, means of more than two groups of data were compared using one-way analysis of variance (ANOVA) with Tukey's honestly significant difference (HSD) post hoc test. In some cases, Kaplan-Meier Survival Analysis was performed using JMP IN v5.1; statistical significance was determined using log rank test.
substance,measurement,setting,value
"A12: Function blocking antibody to the human type 1 IGF receptor, gift from ImClone Systems",TUNEL-positive (apoptotic) cells in lung,"[1]; d14, vs vehicle",increase in TUNEL-positive cells
same,TUNEL-positive (apoptotic) cells in lung,"[1]; day 28, vs vehicle",fewer apoptotic cells
same,effect on IGF-1-induced migration,[2],inhibited; also recorded: abrogated the increased migration
same,proportion of mice surviving,"[3]; 7-14 days post-bleomycin, A12 40 mg/kg i.p. vs saline",significantly greater
same,BALF total protein concentration,"[3]; 28 days, vs saline, p=0.16",trend towards decreased BALF protein concentration
same,weight loss,"[3]; by d14, bleomycin-treated mice",20%
same,lung hydroxyproline content (fibrosis),"[3]; day 7 and day 14, vs saline",no significant differences
same,lung histology,"[3]; day 14, vs saline",Only subtle histological differences; also recorded: qualitatively less fibrosis
same,lung histology,"[3]; day 28, vs saline","Reduced evidence of fibrosis; also recorded: better preservation of lung architecture and lung size, and fewer areas of fibrosis"
same,lung hydroxyproline content (fibrosis),"[3]; day 28, vs saline control (p=0.03) or d14 (p=0.001)",significantly lower lung hydroxyproline levels; also recorded: significantly less hydroxyproline
same,BALF total protein concentration,"[3]; days 7 and 14, vs saline",no significant difference; also recorded: no difference in BALF protein concentration
same,survival (Kaplan-Meier),"[3]; n=24 per group, p=0.01 vs saline control",statistically significant survival benefit
same,BALF differential cell count,[3]; vs saline,no significant difference; also recorded: no difference in the cell differential
same,BALF total cell count,[3]; vs saline,no significant difference; also recorded: not statistically different
same,respiratory or systemic distress by body condition scoring,[3]; vs saline control,less evidence of respiratory or systemic distress
